# Assay results as given in patent US8420852B2, “Phospholipase A2 inhibitors and their use in treating neurological injury and disease” (The Regents of the University of California, priority 2007, dated 2013).
# “Also recorded” adds a separate entry of the source.
# Columns and labels:
# [1] = tested on: SJL/J mice induced with EAE; experiment: EAE model of multiple sclerosis, clinical score; type: in vivo, mouse
# C57BL/6 mice with EAE = details: C57BL/6 mouse strain, previously shown; cited from earlier work
SMILES,"clinical disability score at day 40 ([1]; treatment before onset from day 5/6, stopped day 27, vehicle 2.4)","clinical score at day 18 ([1]; treatment before onset from day 5/6, vehicle grade 2, 5-point scale)","clinical course of EAE vs vehicle control ([1]; treatment before onset of symptoms, from day 5/6 after immunization, daily for 3 weeks)",onset and progression of EAE (C57BL/6 mice with EAE)
"CCCCCCCCCCCCCCC(=O)C(=O)NCCCC(=O)O [AX006, 4-(2-oxohexadecanoyl)amino butyric acid]",1.6,0.5,significant during the first paralytic episode; also recorded: significant reduction of disease severity,–
"CCCCC/C=C\C/C=C\C/C=C\C/C=C\CCCC(=O)C(F)(F)F [AACOCF3, arachidonyltrifluoromethyketone]",–,–,–,markedly reduce the onset and progression of the disease
